Experimental data: patent US7807418B2, “Method for producing hybrid polyketide synthases” (Biotica Technology Limited, priority 1996, dated 2010)

System: Bacillus subtilis ATCC 6633
Assay: Determination of antibiotic activity, agar well diffusion, zones of growth inhibition
Type: cell-based
Conditions: nutrient 1.5% agar seeded with B. subtilis; 20 microlitres of test compound as a solution in ethanol (5-10 mg/L) per well; incubated overnight
Method: A 3 ml overnight culture of Bacillus subtilis ATCC 6633 was grown at 30% C in nutrient broth (Difco). 200 ml of nutrient 1.5% agar (difco) at 46% C was seeded with 1 ml of the B.subtilis culture and poured immediately into petri dishes (25 ml/plate). After drying the plates in a laminar flow hood for 15 minutes, wells ([…] in diameter) were cut using a cork borer and 20 microlitres of the test compound as a solution in ethanol (5-10 mg/L) was added to each well. The plates were kept at 4% C for 5-7 hours to allow the compound to diffuse, and the plates were then incubated overnight at 30% C.

Row | Structure (SMILES) | zones of growth inhibition
1 | COC1(C)CC(OC2C(C)C(=O)OC(C(C)C)C(C)(O)C(O)C(C)C(=O)C(C)CC(C)(O)C(OC3OC(C)CC(N(C)C)C3O)C2C)OC(C)C1O (centres unmarked) [(i-but)-erythromycin A] | Clear zones of growth inhibition
2 | CCC(C)C1OC(=O)C(C)C(OC2CC(C)(OC)C(O)C(C)O2)C(C)C(OC2OC(C)CC(N(C)C)C2O)C(C)(O)CC(C)C(=O)C(C)C(O)C1(C)O (centres unmarked) [(s-pent)-erythromycin A] | Clear zones of growth inhibition
